Measured values taken from patent US20240294498A1, “FACTOR XIIA INHIBITORS” (Lunac Therapeutics Ltd, priority 2021, published 2024).

Key:
Assay type in all cases: biochemical
FXa = FXa (Homo sapiens, UniProt P00742); assay: Determination of selectivity: FXa inhibition (chromogenic substrate S2765); settings: fold selectivity for FXIIa over FXa (human); category
How it was run: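 FXa (5 nM) preincubated with increasing compound (top 500 μM) for 10 mins at 37° C in 50 mM Tris, 137 mM NaCl pH 7.4, 5% DMSO, then S2765 added at its KM. Absorbance at 405 nm followed kinetically for 3 hours; IC50 from initial rates, converted to Ki by Cheng-Prusoff.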

thrombin = biological target: T1, thrombin (Homo sapiens, UniProt P00734); assay: Determination of selectivity: thrombin inhibition (chromogenic substrate GPR); settings: fold selectivity for FXIIa over thrombin (human); category
T1 construct: FXa (5 nM) and thrombin (5 nM)
How it was run: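 Thrombin (5 nM) preincubated with increasing compound concentrations (top 500 μM, 5% DMSO) 10 min at 37 °C in 50 mM Tris, 137 mM NaCl pH 7.4, then GPR chromogenic substrate at its KM. pNA release read kinetically at 405 nm for 3 h at 37 °C. IC50 from initial rates, converted to Ki via Cheng–Prusoff.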

FXIIa = biological target: T2, FXIIa (Homo sapiens, UniProt P00748); assay: Determination of Factor XIIa inhibition (chromogenic substrate S-2302); settings: human FXIIa alpha, Ki category
T2 construct: FXIIa alpha
T2 sequence (P00748 373-615 limits assumed): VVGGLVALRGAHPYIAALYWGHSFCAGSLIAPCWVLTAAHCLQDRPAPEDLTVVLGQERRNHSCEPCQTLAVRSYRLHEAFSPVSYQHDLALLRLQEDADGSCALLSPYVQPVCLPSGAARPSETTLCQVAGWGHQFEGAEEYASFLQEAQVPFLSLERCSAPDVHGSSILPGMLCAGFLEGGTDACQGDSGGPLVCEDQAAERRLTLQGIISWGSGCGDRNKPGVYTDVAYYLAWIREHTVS
T2 sequence (P00748 20-372 partner limits assumed): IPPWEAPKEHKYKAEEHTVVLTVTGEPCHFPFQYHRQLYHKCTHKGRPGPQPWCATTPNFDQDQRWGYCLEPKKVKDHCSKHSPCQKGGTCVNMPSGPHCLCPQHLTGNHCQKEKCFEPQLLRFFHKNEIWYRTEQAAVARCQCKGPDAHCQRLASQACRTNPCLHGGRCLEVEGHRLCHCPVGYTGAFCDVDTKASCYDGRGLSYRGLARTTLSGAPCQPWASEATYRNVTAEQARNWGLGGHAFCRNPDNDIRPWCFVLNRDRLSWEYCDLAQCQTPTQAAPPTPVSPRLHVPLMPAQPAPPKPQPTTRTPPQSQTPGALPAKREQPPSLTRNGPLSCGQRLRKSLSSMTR
How it was run: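 Compound preincubated with 10 nM FXIIa for 10 min at 37° C in 50 mM Tris, 137 mM NaCl, pH 7.4, 5% DMSO, top concentration 500 μM; S-2302 added at Km. pNA release followed at 405 nm for 3 h; IC50 from initial rates, converted to Ki via Ki = IC50/(1+[S]/Km).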

Sequence of FXa (P00742 235-488 limits assumed): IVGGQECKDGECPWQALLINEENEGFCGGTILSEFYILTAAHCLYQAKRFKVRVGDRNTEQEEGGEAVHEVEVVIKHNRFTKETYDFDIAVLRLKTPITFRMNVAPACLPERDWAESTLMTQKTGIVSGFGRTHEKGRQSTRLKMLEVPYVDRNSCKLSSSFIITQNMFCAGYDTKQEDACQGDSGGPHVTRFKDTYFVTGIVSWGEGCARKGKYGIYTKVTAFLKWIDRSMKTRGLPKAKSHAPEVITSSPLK
Sequence of FXa (P00742 41-179 partner limits assumed): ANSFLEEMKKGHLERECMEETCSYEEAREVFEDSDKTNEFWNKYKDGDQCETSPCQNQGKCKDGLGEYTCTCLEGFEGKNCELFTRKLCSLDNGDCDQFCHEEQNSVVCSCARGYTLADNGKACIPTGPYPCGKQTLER

SMILES: CO[C@H]1CCN(C(=O)[C@H]2CCCN[C@H]2C(=O)N2C[C@H](Cc3ccc(C)cc3)C[C@H]2C(=O)NCc2ccc3c(cnn3C)c2)C1 [Example M05837, (2S,4R)-1-((2R,3S)-3-((S)-3-methoxypyrrolidine-1-carbonyl)piperidine-2-carbonyl)-N-((1-methyl-1H-indazol-5-yl)methyl)-4-(4-methylbenzyl)pyrrolidine-2-carboxamide]
- FXa (human)/FXIIa alpha (human) (FXa): ∘∘∘
- Thrombin (human)/FXIIa alpha (human) (thrombin): +++ (fold selectivity values greater than 100)
- Ki (FXIIa): < 200 nM

SMILES: CCN1CCC[C@H](C(=O)N2CCCC2)[C@@H]1C(=O)N1C[C@H](Cc2ccc(C)cc2)C[C@H]1C(=O)NCc1ccc2c(cnn2C)c1 [Example M05772, (2S,4R)-1-((2R,3S)-1-ethyl-3-(pyrrolidine-1-carbonyl)piperidine-2-carbonyl)-N-((1-methyl-1H-indazol-5-yl)methyl)-4-(4-methylbenzyl)pyrrolidine-2-carboxamide]
- FXa (human)/FXIIa alpha (human) (FXa): ∘∘∘
- Thrombin (human)/FXIIa alpha (human) (thrombin): +++ (fold selectivity values greater than 100)
- Ki (FXIIa): 200 to 800 nM

SMILES: CCCc1ccc(C[C@@H]2C[C@@H](C(=O)NCc3ccc4c(c3)nnn4C)N(C(=O)[C@@H]3NCCC[C@@H]3C(=O)N3CCCC3)C2)cc1 [Example M05935]
- FXa (human)/FXIIa alpha (human) (FXa): ∘∘∘
- Thrombin (human)/FXIIa alpha (human) (thrombin): +++ (fold selectivity values greater than 100)
- Ki (FXIIa): 200 to 800 nM

SMILES: [2H]C([2H])([2H])n1ncc2cc(CNC(=O)[C@@H]3C[C@@H](Cc4ccc(C)cc4)CN3C(=O)[C@@H]3NCCC[C@@H]3C(=O)N3CCCC3)ccc21 [Example M05820, (2S,4R)-N-((1-(methyl-d3)-1H-indazol-5-yl)methyl)-4-(4-methylbenzyl)-1-((2R,3S)-3-(pyrrolidine-1-carbonyl)piperidine-2-carbonyl)pyrrolidine-2-carboxamide]
- FXa (human)/FXIIa alpha (human) (FXa): ∘∘∘
- Thrombin (human)/FXIIa alpha (human) (thrombin): +++ (fold selectivity values greater than 100)
- Ki (FXIIa): < 200 nM

SMILES: Cc1ccc(C[C@@H]2C[C@@H](C(=O)NCc3ccc4c(cnn4C)c3)N(C(=O)[C@@H]3NCCC[C@@H]3C(=O)N3CCCCC3)C2)cc1 [Example M05733, (2S,4R)-N-((1-methyl-1H-indazol-5-yl)methyl)-4-(4-methylbenzyl)-1-((2R,3S)-3-(piperidine-1-carbonyl)piperidine-2-carbonyl)pyrrolidine-2-carboxamide]
- FXa (human)/FXIIa alpha (human) (FXa): ∘∘∘
- Thrombin (human)/FXIIa alpha (human) (thrombin): ++ (a fold selectivity value of 10 to 100)
- Ki (FXIIa): < 200 nM

SMILES: COc1ccc(CNC(=O)[C@@H]2C[C@@H](Cc3ccc(C)cc3)CN2C(=O)[C@@H]2NCCC[C@@H]2C(=O)N2CCCC2)cc1 [Example M05965, (2S,4R)-N-[(4-methoxyphenyl)methyl]-4-(p-tolylmethyl)-1-[(2R,3S)-3-(pyrrolidine-1-carbonyl)piperidine-2-carbonyl]pyrrolidine-2-carboxamide]
- FXa (human)/FXIIa alpha (human) (FXa): ∘∘
- Thrombin (human)/FXIIa alpha (human) (thrombin): ++ (a fold selectivity value of 10 to 100)
- Ki (FXIIa): ≥ 5000 nM

SMILES: Cc1ccc(C[C@@H]2C[C@@H](C(=O)NCc3ccc4c(cnn4C)c3)N(C(=O)[C@@H]3NCCC[C@@H]3C(=O)N(C)CCN(C)CCF)C2)cc1 [Example M06131, (2R,3S)-N-(2-((2-fluoroethyl)(methyl)amino)ethyl)-N-methyl-2-((2S,4R)-2-(((1-methyl-1H-indazol-5-yl)methyl)carbamoyl)-4-(4-methylbenzyl)pyrrolidine-1-carbonyl)piperidine-3-carboxamide]
- FXa (human)/FXIIa alpha (human) (FXa): ∘∘∘
- Thrombin (human)/FXIIa alpha (human) (thrombin): +++ (fold selectivity values greater than 100)
- Ki (FXIIa): < 200 nM

SMILES: CN(CCN1CCCC1)C(=O)[C@H]1CCCN[C@H]1C(=O)N1C[C@@H](C(F)(F)F)C[C@H]1C(=O)NCc1ccc2c(cnn2C)c1 [Example M06085, (2R,3S)-N-methyl-2-((2S,4S)-2-(((1-methyl-1H-indazol-5-yl)methyl)carbamoyl)-4-(trifluoromethyl)pyrrolidine-1-carbonyl)-N-(2-(pyrrolidin-1-yl)ethyl)piperidine-3-carboxamide]
- FXa (human)/FXIIa alpha (human) (FXa): ∘∘∘
- Thrombin (human)/FXIIa alpha (human) (thrombin): +++ (fold selectivity values greater than 100)
- Ki (FXIIa): < 200 nM
